Test [1] has as its target GST-RhoBTB3 Rho domain (residues 1-220) (Homo sapiens, UniProt O94955, N138D). Briefly: [γ-32P]ATP hydrolysis. The format is biochemical. The conditions noted are these: MgCl2; labelled compound; 20 nM protein.
The target in test [2] is T1, TIP47 (endogenous, K562) (human (endogenous in K562)), O60664.
T1 chain: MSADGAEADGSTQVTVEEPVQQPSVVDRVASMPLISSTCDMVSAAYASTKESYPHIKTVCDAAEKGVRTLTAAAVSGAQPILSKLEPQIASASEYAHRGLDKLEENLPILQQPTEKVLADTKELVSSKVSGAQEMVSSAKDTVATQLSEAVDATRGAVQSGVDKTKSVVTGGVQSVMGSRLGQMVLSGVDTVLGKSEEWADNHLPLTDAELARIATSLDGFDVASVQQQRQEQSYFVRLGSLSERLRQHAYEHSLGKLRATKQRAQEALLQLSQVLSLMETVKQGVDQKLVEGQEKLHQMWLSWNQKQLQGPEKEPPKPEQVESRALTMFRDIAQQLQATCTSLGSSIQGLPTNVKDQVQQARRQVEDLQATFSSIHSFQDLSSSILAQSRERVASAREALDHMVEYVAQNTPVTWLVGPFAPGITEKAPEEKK
Nature of the test: native gel or EMSA. The settings on record: remark: other sources report otherwise. (In general: In EMSA bound probe runs differently from free probe, usually more slowly.)

Sequence of GST-RhoBTB3 Rho domain (residues 1-220) (O94955 1-220 N138D): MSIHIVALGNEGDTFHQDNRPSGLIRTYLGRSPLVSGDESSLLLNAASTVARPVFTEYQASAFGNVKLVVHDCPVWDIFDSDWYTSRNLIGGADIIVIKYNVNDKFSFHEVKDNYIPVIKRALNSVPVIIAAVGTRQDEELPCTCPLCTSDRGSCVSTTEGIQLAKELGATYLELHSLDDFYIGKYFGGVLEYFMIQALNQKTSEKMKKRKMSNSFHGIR

In the case of `Nc1ncnc2c1ncn2[C@@H]1O[C@H](COP(=O)(O)OP(=O)(O)OP(=O)(O)O)[C@@H](O)[C@H]1O` [ATP], the “[γ-32P]ATP hydrolysis” value in test [1] is “reverted to the D found in most other small GTPases (N138D), significantly less binding”.

B1: TIP47 (endogenous, K562), O60664 1-434 (natural protein)
chain: MSADGAEADGSTQVTVEEPVQQPSVVDRVASMPLISSTCDMVSAAYASTKESYPHIKTVCDAAEKGVRTLTAAAVSGAQPILSKLEPQIASASEYAHRGLDKLEENLPILQQPTEKVLADTKELVSSKVSGAQEMVSSAKDTVATQLSEAVDATRGAVQSGVDKTKSVVTGGVQSVMGSRLGQMVLSGVDTVLGKSEEWADNHLPLTDAELARIATSLDGFDVASVQQQRQEQSYFVRLGSLSERLRQHAYEHSLGKLRATKQRAQEALLQLSQVLSLMETVKQGVDQKLVEGQEKLHQMWLSWNQKQLQGPEKEPPKPEQVESRALTMFRDIAQQLQATCTSLGSSIQGLPTNVKDQVQQARRQVEDLQATFSSIHSFQDLSSSILAQSRERVASAREALDHMVEYVAQNTPVTWLVGPFAPGITEKAPEEKK
Broadly, the stoichiometry N is the number of molecules, sites or subunits per partner or assembly. The molecule B1 had a stoichiometry N in test [2] of 2.

(Values after article PMC2801561 (Cell, 2009).)
